Measured values: US10875876B2, “Cyclized sulfamoylarylamide derivatives and the use thereof as medicaments for the treatment of hepatitis B” (priority 2015, dated 2020)
Like-named read-outs stand apart in the source and are kept apart here.

Experiments:
HBV = assay: anti HBV activity, HepG2.117 cell line, intracellular HBV DNA by realtime PCR; format: cell-based; conditions: HepG2.117 cell line (Tet-off), 3 days of treatment, intracellular HBV DNA quantified by realtime PCR, read-out: HBV-AVE-HepG2.117 EC50
Procedure, shortened: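 Readout was intracellular HBV DNA by real-time PCR (HBV-specific primers and probe) after 3 days of compound exposure. Serial dilutions were tested in duplicate on HepG2.117 cells, a stable inducible HBV producer in which replication is switched on when doxycycline is absent.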

[1] = Cytotoxicity in HepG2 cells, Resazurin assay; conditions: human, HepG2 cells, TOX-HepG2-4 d CC50 (μM), HepG2 cells incubated for 4 days, viability by Resazurin assay
[2] = Hepatitis B virus, HepG2.117, 72 h

Structure (SMILES)	EC50 (HBV; [2]) [nM]	CC50 at 4 days [1] [µM]	EC50 (HBV) [nM]
Cn1cc2c(c1C(=O)Nc1ccc(F)c(F)c1)OCC(C)(CO)NS2(=O)=O (single isomer, unassigned) [Compound 203a, N-(3,4-difluorophenyl)-3-(hydroxymethyl)-3,7-dimethyl-1,1-dioxo-2,4-dihydropyrrolo[3,4-b][1,4,5]oxathiazepine-6-carboxamide]	94	> 25	
Cn1cc2c(c1C(=O)Nc1ccnc(Cl)c1)OCC(C)(CO)NS2(=O)=O (single isomer, unassigned) [Compound 204a, N-(2-chloro-4-pyridyl)-3-(hydroxymethyl)-3,7-dimethyl-1,1-dioxo-2,4-dihydropyrrolo[3,4-b][1,4,5]oxathiazepine-6-carboxamide]	> 125	> 25	
Cc1cc(NC(=O)c2c3c(cn2C)S(=O)(=O)N[C@@H](C(O)C2CC2)CO3)ccc1F (single isomer, unassigned) [Compound 206a, 3-[cyclopropyl(hydroxy)methyl]-N-(4-fluoro-3-methyl-phenyl)-7-methyl-1,1-dioxo-3,4-dihydro-2H-pyrrolo[3,4-b][1,4,5]oxathiazepine-6-carboxamide]	13	> 25	
Cn1cc2c(c1C(=O)Nc1ccc(F)c(Cl)c1)OC[C@H](C(O)C1CC1)NS2(=O)=O (single isomer, unassigned) [Compound 207a, N-(3-chloro-4-fluoro-phenyl)-3-[cyclopropyl(hydroxy)methyl]-7-methyl-1,1-dioxo-3,4-dihydro-2H-pyrrolo[3,4-b][1,4,5]oxathiazepine-6-carboxamide]	8	> 25	
Cn1cc2c(c1C(=O)Nc1cc(F)c(F)c(F)c1)OC[C@H](C(O)C1CC1)NS2(=O)=O (single isomer, unassigned) [Compound 208a, 3-[cyclopropyl(hydroxy)methyl]-7-methyl-1,1-dioxo-N-(3,4,5-trifluorophenyl)-3,4-dihydro-2H-pyrrolo[3,4-b][1,4,5]oxathiazepine-6-carboxamide]	8	> 25	
Cc1cc(CC2(C)COc3c(cn(C)c3C(=O)Nc3ccnc(C(F)F)c3)S(=O)(=O)N2)no1 (single isomer, unassigned) [Compound 209a, N-[2-(difluoromethyl)-4-pyridyl]-3,7-dimethyl-3-[(5-methylisoxazol-3-yl)methyl]-1,1-dioxo-2,4-dihydropyrrolo[3,4-b][1,4,5]oxathiazepine-6-carboxamide]		> 25	60
Cn1cc2c(c1C(=O)Nc1ccc(F)c(C#N)c1)OCC(C)(CO)NS2(=O)=O (single isomer, unassigned) [Compound 210a, N-(3-cyano-4-fluoro-phenyl)-3-(hydroxymethyl)-3,7-dimethyl-1,1-dioxo-2,4-dihydropyrrolo[3,4-b][1,4,5]oxathiazepine-6-carboxamide]	37	> 25	
Cc1cc(CC2(C)COc3c(cn(C)c3C(=O)Nc3ccnc(Cl)c3)S(=O)(=O)N2)no1 (single isomer, unassigned) [Compound 213a, N-(2-chloro-4-pyridyl)-3,7-dimethyl-3-[(5-methylisoxazol-3-yl)methyl]-1,1-dioxo-2,4-dihydropyrrolo[3,4-b][1,4,5]oxathiazepine-6-carboxamide]		> 25	48
Cn1cc2c(c1C(=O)Nc1cc(F)c(F)c(F)c1)OCC(C)(CO)NS2(=O)=O (single isomer, unassigned) [Compound 214a, 3-(hydroxymethyl)-3,7-dimethyl-1,1-dioxo-N-(3,4,5-trifluorophenyl)-2,4-dihydropyrrolo[3,4-b][1,4,5]oxathiazepine-6-carboxamide]		> 25	120
Cn1cc2c(c1C(=O)Nc1ccnc(C(F)F)c1)OCC(C)(CO)NS2(=O)=O (single isomer, unassigned) [Compound 215a, N-[2-(difluoromethyl)-4-pyridyl]-3-(hydroxymethyl)-3,7-dimethyl-1,1-dioxo-2,4-dihydropyrrolo[3,4-b][1,4,5]oxathiazepine-6-carboxamide]		> 25	62
